Where “and” joins values, the source holds several entries; their conditions need not be identical. Equal values may be shown once.
Tested on: NCI/ADR-RES complex spheroid viability
Assay: Anticancer human tumor NCI/ADR-RES cell line growth inhibition;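 also: spheroids exposed to compounds for 7 days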;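 as to viability, T/C: 100% = DMSO vehicle treated spheroids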
Settings: for viability, T/C: stronger effect = lower value
From the text: Multicellular complex tumor spheroid response to LSD1 Inhibitor Iadademstat in combination with a variety of drugs and investigational agents in selected tumor cell lines
The current study was undertaken to assess response to LSD1 inhibitors in combination with standard-of-care drugs and investigational agents in solid tumor complex spheroid models as well as in the K-562 leukemia. Complex spheroids include a stromal component modeled by human endothelial cells (HUVEC) and fibroblasts modeled by human mesenchymal stem cells (MSCs). The concentration ranges selected for each drug and investigational agent were based upon clinically achievable concentrations if the clinical Cmax of the agent was known.
Compounds. The drugs and investigational agents used in this study are listed on Table 1. All of the agents used, including staurosporine (NSC755774) and gemcitabine (NSC613327), were obtained from the Developmental Therapeutics Program, NCI. FDA-approved anticancer drugs are available from the NCI at http://dtp.nci.nih.gov/branches/dscb/oncology_drugset_explanation.html. Drugs and investigational agents were >95% pure by proton nuclear magnetic resonance (NMR) and liquid chromatography/mass spectrometry (LC/MS). Stock solutions were prepared at 400x in DMSO, stored at -70 degrees C, and diluted in fresh medium prior to their use. The final concentration of DMSO in cell culture wells never exceeded 0.25% (v/v). The FDA-approved anticancer drug set is available from the Developmental Therapeutics Program at https://dtp.cancer.gov/organization/dscb/obtaining/available_plates.htm. All drugs and investigational agents were tested over a range starting from a high concentration at or near the clinical Cmax and decreasing in half-log increments. If the clinical Cmax for an agent had not been determined, the highest concentration tested was 10 microM.
Cell Lines. The patient-derived cancer cell (PDC) lines: 292921-168-R-J2-PDC, K24384-001-R-PDC, and 521955-158-R2-J5-PDC pancreatic carcinomas, 556581-035-R-J1 ovarian carcinoma, 324938-238-R-J1-PDC, 855422-203-R-J1-PDC and 883617-216-R-J1-PDC urothelial bladder carcinomas, 743489-274-T-PDC renal cell carcinoma, 138582-R-J1 Merkel cell tumor, K60290-347-R-J1 and K57222-313-R-J1-PDC glioblastomas, 653999-131-R-J2-PDC, LG0703-F948-PDC, and 349418-098-R-PDC non-small cell lung carcinomas, 885512-296-R-J2-PDC, 171881-019-R-J1-PDC breast carcinomas and 186277-243-T-J2-PDC and 233499-124-R-J2-PDC colon carcinomas were obtained from the NCI Patient-Derived Models Repository (PDMR, https://pdmr.cancer.gov). The established cell lines NCI/ADR-RES (RRID:CVCL_14520 and OVCAR-5 (RRID:CVCL_1628) ovarian carcinomas, 786-O (RRID:CVCL_1051) and A498 (RRID:CVCL_A498) renal cell carcinoma, NCI-H211 (ATCC, cat. CRL-5824; RRID:CVCL_1529), NCI-H196 (ATCC, cat. CRL-5823, RRID:CVCL_1509), SW 1271 (ATCC, cat. CRL-2177, RRID:CVCL_1716) and NCI-H1876 (ATCC, cat. CRL-5902, RRID:CVCL_1503) small cell lung carcinomas, MDA-MB-231 (RRID:CVCL_0062) and MDA-MB-468 (RRID:CVCL_0419)breast carcinomas (10-12). Pooled donor human umbilical vein endothelial cells (HUVEC, Lonza, cat. CC-2519) and human mesenchymal stem cells (hMSC, Lonza, cat. PT-2501) were purchased from Lonza (Walkersville, MD).
Cell Culture. All cells were maintained in an incubator at 37 degrees C and 5% CO2 with 95% humidity. The PDC lines were cultured according to standard operating procedures established by the NCI PDMR (https://pdmr.cancer.gov). Briefly all PDCs were thawed and cultured in Matrigel-coated flasks prepared with a working solution of 1X Ham's F-12 nutrient mix, without supplementation (Invitrogen, Waltham, MA, cat. 11765054), 100 U/mL penicillin-streptomycin (Invitrogen, cat. 15140122), and 2.5% Matrigel (Corning Inc., Corning, NY, cat. 354248) for the first three passages. […]

[1] = curve of first compound, second compound 0.1 µM
[2] = curve of first compound, second compound 0.316 µM
[3] = curve of first compound, second compound 1 µM
[4] = curve of first compound, second compound 3.16 µM
[5] = curve of first compound, second compound 10 µM
[6] = second compound 0.1 µM, first compound 0.00949 µM
[7] = second compound 0.1 µM, first compound 0.03 µM
[8] = second compound 0.1 µM, first compound 0.0949 µM
[9] = second compound 0.1 µM, first compound 0.3 µM
[10] = second compound 0.1 µM, first compound 0.949 µM
[11] = second compound 0.1 µM, first compound 3 µM
[12] = second compound 0.316 µM, first compound 0.00949 µM
[13] = second compound 0.316 µM, first compound 0.03 µM
[14] = second compound 0.316 µM, first compound 0.0949 µM
[15] = second compound 0.316 µM, first compound 0.3 µM
[16] = second compound 0.316 µM, first compound 0.949 µM
[17] = second compound 0.316 µM, first compound 3 µM
[18] = second compound 1 µM, first compound 0.00949 µM
[19] = second compound 1 µM, first compound 0.03 µM
[20] = second compound 1 µM, first compound 0.0949 µM
[21] = second compound 1 µM, first compound 0.3 µM
[22] = second compound 1 µM, first compound 0.949 µM
[23] = second compound 1 µM, first compound 3 µM
[24] = second compound 3.16 µM, first compound 0.00949 µM
[25] = second compound 3.16 µM, first compound 0.03 µM
[26] = second compound 3.16 µM, first compound 0.0949 µM
[27] = second compound 3.16 µM, first compound 0.3 µM
[28] = second compound 3.16 µM, first compound 0.949 µM
[29] = second compound 3.16 µM, first compound 3 µM
[30] = second compound 10 µM, first compound 0.00949 µM
[31] = second compound 10 µM, first compound 0.03 µM
[32] = second compound 10 µM, first compound 0.0949 µM
[33] = second compound 10 µM, first compound 0.3 µM
[34] = second compound 10 µM, first compound 0.949 µM
[35] = second compound 10 µM, first compound 3 µM

Structure (SMILES)	IC50 [1]	IC50 [2]	IC50 [3]	IC50 [4]	IC50 [5]	viability, T/C [6]	viability, T/C [7]	viability, T/C [8]	viability, T/C [9]	viability, T/C [12]	viability, T/C [13]	viability, T/C [14]	viability, T/C [15]	viability, T/C [18]	viability, T/C [19]	viability, T/C [20]	viability, T/C [21]	viability, T/C [24]	viability, T/C [25]	viability, T/C [26]	other results
CC(C)c1c(-c2ccccc2)nc2c(C#N)c[nH]n2c1=O	–	–	–	–	–	–	–	–	–	–	–	–	–	–	–	–	–	–	–	–	viability, T/C (compound 0.0316 µM): 103% and 102%; viability, T/C (compound 0.1 µM): 99.6% and 94.7%; viability, T/C (compound 0.316 µM): 96.5% and 96.3%; viability, T/C (compound 1 µM): 104%; viability, T/C (compound 3.16 µM): 98.6% and 93.1%; viability, T/C (compound 10 µM): 94.6% and 96.8%; IC50 (curve of compound): > 10000 nM
CCN(c1cc(-c2ccc(CN3CCOCC3)cc2)cc(C(=O)NCc2c(C)cc(C)[nH]c2=O)c1C)C1CCOCC1 + NC1CC1c1ccc(-c2cccc(O)c2)cc1	> 3000 nM	> 3000 nM	> 3000 nM	> 3000 nM	> 3000 nM	102%	104%	104%	106%	104%	102%	104%	103%	92.1%	96.3%	104%	90.2%	93%	99%	95.3%	viability, T/C [10]: 94.2%; viability, T/C [11]: 88.9%; viability, T/C [16]: 105%; viability, T/C [17]: 95.5%; viability, T/C [22]: 93.4%; viability, T/C [23]: 87.7%; viability, T/C [27]: 94.9%; viability, T/C [28]: 90.2%; viability, T/C [29]: 81.8%; viability, T/C [30]: 92.6%; viability, T/C [31]: 87.8%; viability, T/C [32]: 91.8%; viability, T/C [33]: 86.7%; viability, T/C [34]: 82.7%; viability, T/C [35]: 79%
O=C(C=Cc1cccc(S(=O)(=O)Nc2ccccc2)c1)NO + NC1CC1c1ccc(-c2cccc(O)c2)cc1	79.4 nM	85.5 nM	79 nM	90 nM	73.3 nM	110%	85.7%	42.1%	17.2%	102%	86.8%	44.9%	17.3%	107%	77.5%	46%	18.2%	97%	76.4%	49.8%	viability, T/C [10]: 5.63%; viability, T/C [11]: 1.57%; viability, T/C [16]: 7.86%; viability, T/C [17]: 1.94%; viability, T/C [22]: 8.7%; viability, T/C [23]: 1.47%; viability, T/C [27]: 22.1%; viability, T/C [28]: 9.4%; viability, T/C [29]: 1.58%; viability, T/C [30]: 102%; viability, T/C [31]: 71.5%; viability, T/C [32]: 44.1%; viability, T/C [33]: 22.5%; viability, T/C [34]: 13.5%; viability, T/C [35]: 3.92%
CCc1c2c(nc3ccc(O)cc13)-c1cc3c(c(=O)n1C2)COC(=O)[C@]3(O)CC + NC1CCC(NC2CC2c2ccccc2)CC1	< 0.949 nM	< 0.949 nM	< 0.949 nM	< 0.949 nM	< 0.949 nM	0.6%	1.16%	1.11%	3.88%	1.36%	2.53%	0.44%	0.37%	1.09%	1.03%	0.47%	0.58%	0.88%	0.53%	1.24%	viability, T/C (second compound 0.1 µM, first compound 0.000949 µM): 5.27%; viability, T/C (second compound 0.1 µM, first compound 0.003 µM): 2.59%; viability, T/C (second compound 0.316 µM, first compound 0.000949 µM): 2.94%; viability, T/C (second compound 0.316 µM, first compound 0.003 µM): 1.44%; viability, T/C (second compound 1 µM, first compound 0.000949 µM): 6.45%; viability, T/C (second compound 1 µM, first compound 0.003 µM): 1.09%; viability, T/C (second compound 3.16 µM, first compound 0.000949 µM): 2.6%; viability, T/C (second compound 3.16 µM, first compound 0.003 µM): 1.07%; viability, T/C [27]: 2.59%; viability, T/C (second compound 10 µM, first compound 0.000949 µM): 4.02%; viability, T/C (second compound 10 µM, first compound 0.003 µM): 1.26%; viability, T/C [30]: 0.71%; viability, T/C [31]: 0.53%; viability, T/C [32]: 0.22%; viability, T/C [33]: 4.32%
